Holding throughout (type): cell-based
In one test the test system is E.coli ATCC 25922. Description: MIC by broth microdilution, E. coli ATCC 25922. Conditions: cation-adjusted Mueller-Hinton broth, CLSI guidelines. In general terms: Dilution methods test growth across graded concentrations, often in twofold steps.
In a further test the test system is E.coli IHMA 940398. Description: MIC by broth microdilution, E. coli IHMA 940398. As to conditions: cation-adjusted Mueller-Hinton broth, CLSI guidelines, clinical strain with reduced susceptibility to PMB.
In another test the test system is K.pneumoniae ATCC 4352. The experiment in a line: MIC by broth microdilution, K. pneumoniae ATCC 4352. As to conditions: cation-adjusted Mueller-Hinton broth, CLSI guidelines.
The test system of a further test is K.pneumoniae IHMA 652780. Description: MIC by broth microdilution, K. pneumoniae IHMA 652780. As to conditions: cation-adjusted Mueller-Hinton broth, CLSI guidelines, clinical strain with reduced susceptibility to PMB.
The next test has as its system P.aeruginosa ATCC 27853. Description: MIC by broth microdilution, P. aeruginosa ATCC 27853. Conditions: cation-adjusted Mueller-Hinton broth, CLSI guidelines.
The test system of the next test is P.aeruginosa IHMA 517175. Description: MIC by broth microdilution, P. aeruginosa IHMA 517175. Conditions: cation-adjusted Mueller-Hinton broth, CLSI guidelines, clinical strain with reduced susceptibility to PMB.
In a further test the test system is A.baumannii NCTC 13424. The experiment in a line: MIC by broth microdilution, A. baumannii NCTC 13424. Conditions: cation-adjusted Mueller-Hinton broth, CLSI guidelines.
Another test relates to A.baumannii IHMA 863866. The experiment in a line: MIC by broth microdilution, A. baumannii IHMA 863866. As to conditions: cation-adjusted Mueller-Hinton broth, CLSI guidelines, clinical strain with reduced susceptibility to PMB.

With Polymyxin B [Compound 1], the “MIC E.coli ATCC 25922” value against E.coli ATCC 25922 turned out to be 0.25 µg/mL. Moreover, the “MIC E.coli IHMA 940398” value with E.coli IHMA 940398 amounted to 16 µg/mL. In the test with K.pneumoniae ATCC 4352, the “MIC K.pneumoniae ATCC 4352” value was found to be 0.125 µg/mL. The “MIC K.pneumoniae IHMA 652780” value in the test with K.pneumoniae IHMA 652780 amounted to 4.0 µg/mL. Also, the “MIC P.aeruginosa ATCC 27853” value in the test on P.aeruginosa ATCC 27853 was determined as 0.5 µg/mL. For the same substance, the “MIC P.aeruginosa IHMA 517175” value against P.aeruginosa IHMA 517175 is 8.0 µg/mL. Further, the “MIC A.baumannii NCTC 13424” value in the test with A.baumannii NCTC 13424 was 0.25 µg/mL. Also, the “MIC A.baumannii IHMA 863866” value against A.baumannii IHMA 863866 was found to be 32 µg/mL.
